# Experiments:
# Assay type in all cases: cell-based
# [1] = biological target: Sodium- and chloride-dependent GABA transporter 1 (Mus musculus, UniProt P31648); experiment: Inhibition of mouse mGAT1 expressed in HEK293 cells assessed as inhibition of [3H]GABA uptake after 3 mins incubation by TopCount microplate scintillation counting analysis
# GABA transporter 2 = biological target: T1, GABA transporter 2 (Mus musculus, UniProt P31651); experiment: Inhibition of mouse mGAT2 expressed in HEK293 cells assessed as inhibition of [3H]GABA uptake after 3 mins incubation by TopCount microplate scintillation counting analysis; settings: read-out: IC50
# T1 sequence (P31651 whole entry): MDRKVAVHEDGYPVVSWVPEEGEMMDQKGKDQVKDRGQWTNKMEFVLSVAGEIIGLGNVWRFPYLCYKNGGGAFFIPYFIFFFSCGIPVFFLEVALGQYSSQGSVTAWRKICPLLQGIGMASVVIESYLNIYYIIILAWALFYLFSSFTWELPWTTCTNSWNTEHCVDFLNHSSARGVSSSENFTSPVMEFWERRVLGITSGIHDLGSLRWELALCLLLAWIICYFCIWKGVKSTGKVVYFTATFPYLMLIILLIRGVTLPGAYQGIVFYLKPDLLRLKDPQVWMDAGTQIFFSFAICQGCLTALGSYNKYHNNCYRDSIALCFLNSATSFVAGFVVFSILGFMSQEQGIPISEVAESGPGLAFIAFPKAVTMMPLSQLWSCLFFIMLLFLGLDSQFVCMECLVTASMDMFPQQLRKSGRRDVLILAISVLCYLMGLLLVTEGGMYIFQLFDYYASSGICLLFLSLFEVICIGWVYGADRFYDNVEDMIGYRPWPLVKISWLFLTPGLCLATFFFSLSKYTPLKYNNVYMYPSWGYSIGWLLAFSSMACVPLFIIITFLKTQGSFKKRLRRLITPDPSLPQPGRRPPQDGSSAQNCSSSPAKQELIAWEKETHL
# GABA transporter 3 = biological target: T2, GABA transporter 3 (Mus musculus, UniProt P31649); experiment: Inhibition of mouse mGAT3 expressed in HEK293 cells assessed as inhibition of [3H]GABA uptake after 3 mins incubation by TopCount microplate scintillation counting analysis
# T2 sequence (P31649 whole entry): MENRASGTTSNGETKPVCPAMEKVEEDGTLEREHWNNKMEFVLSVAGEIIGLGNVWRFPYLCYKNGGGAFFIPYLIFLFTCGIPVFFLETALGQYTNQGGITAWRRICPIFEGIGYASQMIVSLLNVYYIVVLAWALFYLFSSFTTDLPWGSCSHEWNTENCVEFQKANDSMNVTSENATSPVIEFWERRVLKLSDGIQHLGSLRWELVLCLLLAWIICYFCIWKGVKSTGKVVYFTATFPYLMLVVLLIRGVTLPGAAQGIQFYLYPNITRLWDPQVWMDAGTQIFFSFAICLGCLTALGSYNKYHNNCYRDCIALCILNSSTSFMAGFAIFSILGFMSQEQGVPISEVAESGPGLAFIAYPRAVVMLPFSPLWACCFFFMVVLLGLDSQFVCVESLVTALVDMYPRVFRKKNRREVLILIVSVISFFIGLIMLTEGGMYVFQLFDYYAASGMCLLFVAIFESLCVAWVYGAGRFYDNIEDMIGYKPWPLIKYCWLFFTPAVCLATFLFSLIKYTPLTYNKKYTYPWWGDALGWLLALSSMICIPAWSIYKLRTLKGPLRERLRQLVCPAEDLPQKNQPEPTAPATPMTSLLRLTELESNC
# GABA transporter 4 = biological target: T3, GABA transporter 4 (Mus musculus, UniProt P31650); experiment: Inhibition of mouse mGAT4 expressed in HEK293 cells assessed as inhibition of [3H]GABA uptake after 3 mins incubation by TopCount microplate scintillation counting analysis
# T3 sequence (P31650 whole entry): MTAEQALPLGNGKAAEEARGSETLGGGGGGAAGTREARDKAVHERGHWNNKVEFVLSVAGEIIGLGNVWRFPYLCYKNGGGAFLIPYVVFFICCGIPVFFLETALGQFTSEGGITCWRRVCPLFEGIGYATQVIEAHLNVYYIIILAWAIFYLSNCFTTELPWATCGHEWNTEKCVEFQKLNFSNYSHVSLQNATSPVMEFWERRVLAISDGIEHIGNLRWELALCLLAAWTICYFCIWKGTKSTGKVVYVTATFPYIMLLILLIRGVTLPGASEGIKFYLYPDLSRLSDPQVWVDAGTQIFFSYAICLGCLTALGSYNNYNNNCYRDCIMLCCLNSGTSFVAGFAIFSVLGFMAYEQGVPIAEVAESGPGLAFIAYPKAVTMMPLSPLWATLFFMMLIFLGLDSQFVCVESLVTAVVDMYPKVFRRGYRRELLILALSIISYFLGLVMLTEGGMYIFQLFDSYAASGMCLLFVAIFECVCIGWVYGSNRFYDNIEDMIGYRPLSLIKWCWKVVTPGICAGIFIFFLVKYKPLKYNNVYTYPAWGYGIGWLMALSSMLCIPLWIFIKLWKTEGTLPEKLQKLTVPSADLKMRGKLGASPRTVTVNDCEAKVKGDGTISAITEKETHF
SMILES,IC50 ([1]; read-out: IC50) [µM],IC50 (GABA transporter 2) [µM],IC50 (GABA transporter 3; read-out: IC50) [µM],IC50 (GABA transporter 3; read-out: pIC50 (converted)) [µM],IC50 (GABA transporter 4; read-out: IC50) [µM],IC50 ([1]; read-out: pIC50 (converted)) [µM],IC50 (GABA transporter 4; read-out: pIC50 (converted)) [µM]
CCOC(=O)[C@H]1CCCC[C@H]1N(C)CCC=C1c2ccccc2CCc2ccccc21,1190,444,1400,1740,> 1000,,
O=C(O)C1CNCCN(CCON=C(c2ccccc2)c2ccccc2)C1 (stereo unspecified),667,> 1000,> 1000,,> 1000,5250,
CN(CCC=C1c2ccccc2CCc2ccccc21)C1CCCC=C1C(=O)O (stereo unspecified),425,81,687,,821,537,
Cc1ccsc1C(=CCCN1CCNC(C(=O)O)C1)c1sccc1C (racemic),95.6,> 1000,> 1000,,> 1000,,
CNCCON=C(c1ccccc1)c1ccccc1,> 2000,430,1050,,829,,
Cc1ccsc1C(=CCCN(C)[C@H]1CCCC[C@@H]1C(=O)O)c1sccc1C,264,62.2,478,,263,,
Cc1ccsc1C(=CCCn1cc(CNCCC(=O)O)nn1)c1sccc1C,> 2000,> 2000,> 2000,,> 2000,,
CCCCN1CCN(CCC=C(c2sccc2C)c2sccc2C)CC(C(=O)O)C1 (stereo unspecified),185,80.6,650,,681,501,
CN(CCC=C1c2ccccc2CCc2ccccc21)CCC(=O)O,77.7,735,1050,,1700,,
CN(CCC=C1c2ccccc2CCc2ccccc21)[C@H]1CCCC[C@H]1C(=O)O,1360,147,1840,1450,649,,
CCN1CCNC(C(=O)O)C1 (racemic),> 1000,> 1000,> 1000,,> 1000,,
CN(CCOC(c1ccc(C(F)(F)F)cc1)c1ccc(C(F)(F)F)cc1)C1CCCC=C1C(=O)O (stereo unspecified),> 1000,107,> 1000,,> 1000,,
O=C(O)CCNCCON=C(c1ccccc1)c1ccccc1,6.99,> 1000,290,,310,,
CN(CCON=C(c1ccccc1)c1ccccc1)C1CCCC=C1C(=O)O (stereo unspecified),> 2000,814,> 2000,,> 2000,,
CN(CCOC(c1ccc(C(F)(F)F)cc1)c1ccc(C(F)(F)F)cc1)[C@@H]1CCCC[C@H]1C(=O)O,421,97.1,393,,299,,
O=C(O)C1CN(CCOC(c2ccc(C(F)(F)F)cc2)c2ccc(C(F)(F)F)cc2)CCN1 (racemic),83,401,> 1000,,1760,,
CN(CCCS(=O)(=O)O)CCON=C(c1ccccc1)c1ccccc1,828,> 1000,> 1000,,> 1000,,
CN(CCOC(c1ccc(C(F)(F)F)cc1)c1ccc(C(F)(F)F)cc1)[C@H]1CCCC[C@H]1C(=O)O,631,90,392,,303,,

SMILES,IC50 ([1]; read-out: IC50) [µM],IC50 (GABA transporter 2) [µM],IC50 (GABA transporter 3; read-out: IC50) [µM],IC50 (GABA transporter 3; read-out: pIC50 (converted)) [µM],IC50 (GABA transporter 4; read-out: IC50) [µM],IC50 ([1]; read-out: pIC50 (converted)) [µM],IC50 (GABA transporter 4; read-out: pIC50 (converted)) [µM]
CCOC(=O)[C@@H]1CCCC[C@@H]1N(C)CCC=C1c2ccccc2CCc2ccccc21,1370,375,1340,,1670,,
Cc1ccsc1C(=CCCN(C)[C@@H]1CCCC[C@@H]1CO)c1sccc1C,239,34.8,133,,178,,
CN(CCC=C1c2ccccc2CCc2ccccc21)[C@H]1CCCC[C@@H]1C(=O)O,962,139,1240,,715,,724
Cc1ccsc1C(=CCCN1CCNCC1C(=O)O)c1sccc1C (racemic),195,1400,1660,,883,,
C=CCN1CCN(CCC=C(c2sccc2C)c2sccc2C)CC(C(=O)O)C1 (stereo unspecified),549,160,1100,,563,,
CN(CCC=C1c2ccccc2CCc2ccccc21)[C@@H]1CCCC[C@H]1C(=O)O (racemic),972,125,985,,844,,
CCN1CCNCC1C(=O)O (racemic),> 1000,> 1000,> 1000,,> 1000,,
Cc1ccsc1C(=CCCN(C)[C@H]1CCCC[C@H]1C(=O)O)c1sccc1C,562,21.6,941,,289,,
Cc1ccsc1C(=CCCN1CCNCC(C(=O)O)C1)c1sccc1C (stereo unspecified),43.8,370,844,,1740,,
Cc1ccsc1C(=CCCN(C)[C@H]1CCCC[C@H]1CO)c1sccc1C,215,27,168,,146,,
CN(CCON=C(c1ccccc1)c1ccccc1)CCC(=O)O,9.7,7520,674,,768,,
Cc1ccsc1C(=CCCN1CCN(Cc2ccccc2)CC(C(=O)O)C1)c1sccc1C (stereo unspecified),> 1000,309,> 1000,,> 1000,,
CN(CCC=C1c2ccccc2CCc2ccccc21)CCCP(=O)(O)O,> 1000,> 1000,> 1000,,> 1000,,
O=C(O)C1CNCCN1CCON=C(c1ccccc1)c1ccccc1 (racemic),> 1000,> 1000,> 1000,,> 1000,,
O=C(O)CCNCCC=C1c2ccccc2CCc2ccccc21,281,1380,3250,,4060,,
Cc1ccsc1C(=CCCN(C)[C@@H]1CCCC[C@@H]1C(=O)O)c1sccc1C,917,94.9,328,,380,,
Cc1ccsc1C(=CCCN(C)C1CCCC=C1C(=O)O)c1sccc1C (stereo in doubt; (E2)-6a),403,67,584,,413,,

# From ChEMBL document CHEMBL3399947, “Structure activity relationship of selective GABA uptake inhibitors” (Bioorg Med Chem, 2015)
